From ChEMBL document CHEMBL1150999, “Synthesis and biological activities of new conformationally fixed analogues of ()-indolactam-V, the core structure of tumor-promoting teleocidins” (1995) come the findings set out here.

What all share (type): functional
The test system of test [1] is Human gammaherpesvirus 4. Briefly: In vitro ability of compound to induce Epstein-Barr virus early antigen (EBV-EA) activity at 10 e-5 M concentration.
In test [2] the test system is Human gammaherpesvirus 4. Kind of test: In vitro ability of compound to induce Epstein-Barr virus early antigen (EBV-EA) activity at 10 e-6 M concentration.
The test system of test [3] is Human gammaherpesvirus 4. Briefly: In vitro ability of compound to induce Epstein-Barr virus early antigen (EBV-EA) activity at 10 e-7 M concentration.

`CC(C)[C@H]1C(=O)N[C@H](CO)Cc2c[nH]c3ccc4c(c23)N1[C@@H](C)C4`: the Activity was 17.8% in the test on Human gammaherpesvirus 4 [1], 0.8% with Human gammaherpesvirus 4 [2] and 0.2% in the test on Human gammaherpesvirus 4 [3].

Consider `CC(C)[C@H]1C(=O)N[C@H](CO)Cc2c[nH]c3cccc(c23)N1C` [INDOLACTUM], for which the results for the Activity with Human gammaherpesvirus 4 [1], in the test with Human gammaherpesvirus 4 [2] and with Human gammaherpesvirus 4 [3] were 35%, 19% and 7.7%, respectively.

With `Cc1ccc2[nH]cc3c2c1N(C)[C@@H](C(C)C)C(=O)N[C@H](CO)C3`, the figures for the Activity with Human gammaherpesvirus 4 [1], in the test with Human gammaherpesvirus 4 [2] and in the test with Human gammaherpesvirus 4 [3] were 9.4%, 1.4% and 0.3%, respectively.

In the case of `CC(C)[C@H]1C(=O)N[C@H](CO)Cc2c[nH]c3ccc4c(c23)N1[C@H](C)C4`, the Activity is 16% in the test on Human gammaherpesvirus 4 [1], 14.1% in the test with Human gammaherpesvirus 4 [2] and 1.2% in the test with Human gammaherpesvirus 4 [3].

Consider `Cc1cc2ccc3[nH]cc4c3c2n1[C@@H](C(C)C)C(=O)N[C@H](CO)C4`, for which the Activity in the test on Human gammaherpesvirus 4 [1] is reported as 36.1%; in the test on Human gammaherpesvirus 4 [2] it was 34%; with Human gammaherpesvirus 4 [3], 12.7%.
